The text below walks through data of EP0157762B1, “NEW SUBSTITUTED PIPERIDINOGUANIDINES, PREPARATION PROCESS AND PHARMACEUTICAL COMPOSITIONS CONTAINING THEM” (BOUCHARA S.A., priority 1983, dated 1985).

This series in a line: Solubility (qualitative). Type of series: physicochemical.

As for `CNC(=NC(N)=O)NCC1CCN(CCCC(=O)c2ccc(F)cc2)CC1` [Exemple I], for the setting “organic solvents”, the “solubilité dans les solvants organiques” value is “peu soluble dans les solvants organiques”. Further, the “solubilité dans l'eau” value (water) was “soluble dans l'eau”.
